Assay results published in a melting point compilation (Tetko et al.; mined from patent text by program, amines drawn as free bases though some values may be those of a salt).

| Structure (SMILES) | melting point [°C] |
| --- | --- |
| COc1ccccc1N1CCN(C(=S)Nc2nc3ccccc3nc2OC)CC1 | 160 to 162 |
| Cc1cccc(C2=CCN(c3ccc(F)nn3)CC2)c1 | 105 |
| COc1ccc(-c2csc(Nc3ccncc3)n2)cc1OC | 205 to 207 |
| COc1c(Br)cc2c3c(cccc13)C(=O)N(O)C2=O | 223 to 227 |
| COC(=O)c1ccc(NC(C)=O)c(C=NO)c1 | 200 to 203 |
| O=C(O)CCNC(=O)c1ccc(-c2ccccc2OC2OC(CO)C(O)C(O)C2O)cc1 (centres undefined) | 101 to 104 |
| CCC(Oc1ccc(CCC(=O)c2ccc(-c3ccc(C(F)(F)F)cc3)s2)cc1Br)C(=O)O (centres undefined) | 126 to 128 |
| N#Cc1ccc(O[C@@H]2c3cccnc3C[C@H]2N2CCC[C@@H](N)C2)c(Cl)c1 | 172 |
| COc1ccc(C(=O)c2sc3cc(OC)ccc3c2-c2ccccc2)cc1 | 127 to 128 |
| COc1cccc2c1nc(Cl)n2C | 118 to 119 |
| CCCCCn1c(C)cc(=O)c(C(=O)Nc2ccccc2)c1-c1ccccc1 | 164 to 166 |
| CN(CCCc1c(N)nc(N)[nH]c1=O)c1ccc(C(=O)N[C@@H](CCC(=O)O)C(=O)O)cc1 | 190 to 200 |
| CC(C)n1cc(Cc2cc3cccc(-c4cccc(C(=O)NCCO)c4)c3s2)ccc1=O | 178 to 183 |
| O=C1c2ccccc2C(=O)N1CCCCc1cc(-c2ccccn2)nc(-c2ccccn2)c1 | 128 |
| C=C(c1ccc2cc(OC)ccc2c1)C(O)C(=O)OC (centres undefined) | 90.6 to 92.5 |
| Cc1ccccc1C(Nc1ccncc1)c1ccccc1 (centres undefined) | 141 to 143 |
| O=C1N=NC(=O)c2c1[nH]c1c(Cl)cccc21 | > 250 |
| CCCCNC(=O)OC1c2cc(Cl)ccc2C(=O)N1c1ccc2ccc(Cl)nc2n1 (centres undefined) | 228 to 230 |
| Clc1cc(Cl)n2nc(SCc3ccccc3)nc2n1 | 97 to 100 |
| CCCCn1c(NCCC)nc2ccc(Br)cc2c1=O | 71 to 73 |
| OC1(C2CC2)CSC(=S)N1c1ccccn1 (centres undefined) | 95 |

| Structure (SMILES) | melting point [°C] |
| --- | --- |
| CN(C)CCn1c(=O)c2cc(N)ccc2c2cnc3cc4c(cc3c21)OCO4 | 245 to 246 |
| CCCOc1cc(C)ccc1C1=NC(=O)C2=NC=NC2=N1 | 323 to 325 |
| O=[N+]([O-])c1ccc2c(c1)C(c1ccccn1)=CC(C(F)(F)F)(C(F)(F)F)O2 | 105 to 107 |
| CC(C)(C)OC(=O)CN1C(=O)C(=O)c2ccccc21 | 119 to 121 |
| Cc1ccc([N+](=O)[O-])cc1C=Cc1ccccc1 | 65.5 |
| Cc1cc(=O)oc2nc(N(C)C)ccc12 | 157 to 160 |
| Cc1cc(-c2cc(F)c(F)cc2-c2ccc(S(N)(=O)=O)cc2)ccc1Cl | 142 to 143 |
| NCCc1ccc(C=Cc2ccccc2)cc1 | 141 to 156 |
| Cn1c(C(F)(F)F)cc(=O)n(-c2ccc(OCc3ccc(Cl)cc3)cc2)c1=O | 167 to 169 |
| N#Cc1ccc(OCCCCCCCCCCCCOc2ccc(C#N)c(C#N)c2)cc1C#N | 104 to 107 |
| O=c1[nH]c(=Cc2ccc(OCc3ccccc3)cn2)c(=O)[nH]c1=CCc1ccccc1 | 223 to 225 |
| CC1(C)COc2cc(Cl)c(Cl)cc2C(O)(c2cccnc2)C1 (centres undefined) | 166 |
| COc1c(C#N)cc([N+](=O)[O-])cc1C#N | 144 to 148 |
| O=c1c2c(-c3ccc(O)cc3)n[nH]c2c2cccnc2n1-c1ccccc1 | > 300 |
| O=C1CC2CCc3ccccc3C2=NN1c1ccccc1O (centres undefined) | 221 to 222 |
| Cc1ccc(NC(=O)CCCC2CCCCC2)cc1NC(=O)c1ccc(O)cc1 | 159 to 160 |
| CCS(=O)(=O)c1ccc(F)c([N+](=O)[O-])c1 | 128 to 131 |
| CCCCC#CCCOc1ccc(/C=C/C(=O)Nc2ccccc2C(=O)O)cc1OC | 169 to 170 |
| CN1C(=O)CN=C(c2ccccc2F)c2cc(NC(=O)NCc3ccccc3)ccc21 | 174 to 178 |
| CC(=O)SC/C(=C/c1ccccc1)C(=O)O | 57 |
| COc1ccc2nc(C)n(-c3ccccc3)c2n1 | 114 to 116 |

| Structure (SMILES) | melting point [°C] |
| --- | --- |
| COCC(=O)OC1(C(=O)COC(C)=O)CCC2C3CC(C)C4=CC(=O)C=CC4(C)C3C(O)CC21C (centres undefined) | 150 to 152 |
| CC(=O)N(CCCC(=O)c1ccccc1)C(C)C | 36 to 39 |
| CN1CCCCC1CCc1ccccc1NC(=O)c1ccc(C(C)(C)C)cc1 (centres undefined) | 101 to 120 |
| Cc1nn(Cc2ccccc2)c(=O)[nH]c1=O | 141 to 142 |
| CCC(Oc1cncc(Br)c1)C(=O)O (centres undefined) | 100 to 102 |
| COCCOC[C@H](CC1(C(=O)N[C@H]2CC[C@@H](C(=O)O)CC2)CCCC1)C(=O)O | 108 |
| CCOC(=O)c1ccccc1Sc1ccn(C(=O)N(CC)CC)n1 | 65 to 67 |
| COC(=O)c1ccc(OC)c(Oc2ccccc2)c1 | 61 to 63 |
| C#CCOc1ccc([N+](=O)[O-])cc1 | 108 to 110 |
| CC(=O)Nc1ccc2c(c1)OC(C)(C)C=C2 | 80 to 81 |
| N#CCc1nn(-c2ccccn2)c(N)c1C#N | 178 to 179 |
| COc1cc(Nc2c(C#N)cnc3cc(-c4csc(C5OCCO5)c4)sc23)c(Cl)cc1Cl | 219 to 221 |
| COC(=O)c1ccc(Cn2cc(C=C3C(=O)NC(=O)NC3=O)c3ccccc32)cc1 | > 300 |
| O=C1NC(=O)c2c1cc(-c1ccccc1)c1[nH]c3ccc(O)cc3c21 | 335 to 345 |
| CC1(C)C(=O)Nc2cc([N+](=O)[O-])c(NC(=O)c3ccncc3)cc21 | 310 to 318 |
| O=C1N(C(c2ccccc2)c2ccccc2)c2c(F)cccc2C12COc1cc3c(cc12)CCO3 (centres undefined) | 183 to 184 |
| COC(=O)c1ccc(OCCc2c[nH]cn2)cc1 | 116 to 118 |
| CCCCN1C(=O)c2ccc(O)cc2C1=O | 126 to 127 |
| O=S(=O)(Cl)C=Cc1c(Cl)cccc1Cl | 88 to 90 |

Second part, the compound after the results:

| melting point [°C] | Structure (SMILES) |
| --- | --- |
| 44 to 46 | CS(=O)(=S)OCCC(=O)O (centres undefined) |
| 192 to 193 | ON=C1CCOc2cc(Cl)c(Cl)cc21 |
| 198 to 200 | Cc1ccc(C)n1CC(=O)N=C(N)N |
| 168 to 169 | CCCCS(=O)c1ccc(-n2[nH]c3ccccc3c2=O)cc1 (centres undefined) |
| 122 | CN(C)c1cccc([N+](=O)[O-])c1C(=O)NC1CCN(C(c2ccccc2)c2ccccc2)CC1 |
| 263 | CNc1nc2[nH]c(-c3cccc(CNC(=O)COC)n3)cc2c2c1ncn2C |
| 190 | Cc1[nH]c(=S)n(Nc2cccc(Br)c2)c1-c1ccccc1 |
| 157 to 160 | O=C1C(c2cc3c(cc2O)OCCO3)c2ccccc2N1C(c1ccccc1)c1ccccc1 (centres undefined) |
| 71 to 72 | O=C(Cc1c[nH]c2ccccc12)OCc1ccccc1 |
| 93.7 | Cc1ccc(C(=O)c2ccc(C(C)C(=O)O)cc2)s1 (centres undefined) |
| 209 to 210 | CCn1ncc(C(=O)c2ccc(S(C)(=O)=O)c(N3CCOC(O)C3)c2Cl)c1O (centres undefined) |
| 129 to 130 | CCOC(=O)NN(C)c1ccc(-c2ccccc2)nn1 |
| 125 to 127 | COc1ccc2c(c1)cc(-c1nnn(Cc3cccc(OCc4ccc5ccccc5n4)c3)n1)c(=O)n2C |
| 95 to 96 | CCOC(=O)c1ccccc1OCCCCCCCCCCC(=O)CCCCOc1ccc(Cl)cc1 |
| 241 | CCOc1ccc2c(c1)n(-c1ccccn1)c(=O)n2S(=O)(=O)c1ccc(C(=O)O)cc1OC |
| 230 to 232 | Cc1ccnc(O)c1C#N |
| 86 to 87 | CC1CC(C)(C)NC(c2ccccc2)=N1 (centres undefined) |
| 185 to 187 | O=C(Cc1ccc(F)cc1)c1c(O)c2cccnc2n(-c2ccccc2)c1=O |
| 186 | COc1ccc(Cn2c(=O)c(Cl)nc3ccc4ccccc4c32)c(OC)c1 |
| 67 to 72 | O=C(O)C(=O)N1CN(C(=O)c2c(F)cccc2F)C(=O)N(c2ccc(Oc3ccc(C(F)(F)F)cc3Cl)cc2F)C1 |
| 228 to 230 | O=c1[nH][nH]c(=O)c2c(O)c3cc(Cl)ccc3nc12 |
| 96.3 | CCCCCCCc1ccc(-c2ncc(C#N)cn2)cc1 |

| melting point [°C] | Structure (SMILES) |
| --- | --- |
| 194 to 195 | Cc1nc(-c2ccc(OCC(C)(C)C)c(I)c2)sc1C(=O)O |
| 235 to 236 | Oc1ncc(-c2cccc(Cl)c2)cn1 |
| > 300 | O=C(O)c1cn(C2CC2)c2nc(N3Cc4cccc(Cl)c4C3)c(F)cc2c1=O |
| 264 to 266 | O=C(O)c1cn(-c2nccs2)c2nc(Cl)cc(Cl)c2c1=O |
| 155 to 157 | CCNc1nc(Nc2ccccc2)ncc1C=O |
| 169 to 172 | CCOc1ccc(F)c(CCN=C(N)Nc2ccc(Br)cn2)c1Cl |
| 187 to 189 | NC(=O)N(O)CCNC(=O)Cc1ccccc1Nc1c(Cl)cccc1Cl |
| 147 to 148 | NN(C(=O)c1c(F)cccc1Cl)c1ccccc1C(F)(F)F |
| 49 to 52 | CC(=S)OC(c1ccccc1)C1(C)OCCO1 (centres undefined) |
| 163 to 165 | CCCNC(=O)C1Cc2c([nH]c3ccccc23)C(c2ccc3c(c2)OCO3)N1C(C)=O (centres undefined) |
| 213 to 216 | COc1cc(OC)c(-c2cccs2)cc1/C=C/C(=O)c1ccc(C(=O)O)cc1 |
| 61 to 63 | COc1ccc(CCOc2ccc(C(=O)N/C(=C\c3ccc(SC)cc3)C(=O)NCCO)cc2)cc1 |
| 169 | C#CCOc1cc2c(=O)cc(C(=O)OCC)n(CC#C)c2ccc1=O |
| 104 to 109 | CC(O)C1C(=O)N2C(C(=O)OCc3ccccc3)=C(S(=O)c3ccccc3)CC12 (centres undefined) |
| 54 to 56 | C[C@H](CSC(=O)c1ccccc1)C(=O)N(CC(=O)OC(C)(C)C)C1CCCC1 |
| 118 to 121 | CCn1c(C)nc2cc(C(=O)OC)ccc21 |
| 150 to 151 | CS(=O)(=O)c1ccc(-c2cc(=O)n(Cc3ccc(F)cc3)nc2-c2ccc(F)cc2)cc1 |
| 161 to 162 | CCCCc1nn(C)c2c1CCc1c(C(N)=O)sc(Oc3ccc4c(c3)OCO4)c1-2 |
| 122 to 123 | Cc1cccc2c(/C=C/C(=O)O)cc(C(C)C)c(O)c12 |
| 113 | CCCCC(=O)c1ccc(NC(C)=O)cc1O |
| 160 to 162 | CCNC(=O)Nc1cc(-c2sc(CC)nc2-c2cccc(C)c2)ccn1 |
